According to publication PMC12024234, “Antioxidant, Anti-Inflammatory, and Oral Bioavailability of Novel Sulfonamide Derivatives of Gallic Acid” (Antioxidants, 2025):

Columns and labels:
[1] = Ferric reducing antioxidant power (FRAP) assay; settings: compared to GA
Method: The FRAP assay was conducted following an adapted procedure based on the method described by Benzie (1996). The FRAP reagent was prepared fresh and warmed to 25 °C before use. The reagent was made by combining 2.5 mL of a 10 mM TPTZ solution in 40 mM hydrochloric acid, 2.5 mL of a 20 mM FeCl3·6H2O solution, and 25 mL of a 0.3 M sodium acetate buffer adjusted to pH 3.6. For the assay, 100 μL of each sample was mixed with 3 mL of the freshly prepared FRAP reagent and incubated for 4 min. After incubation, the absorbance was recorded at 593 nm using a UV-VIS spectrophotometer, with methanol serving as the blank. A standard calibration curve was generated using ascorbic acid solutions at concentrations of 100, 200, 400, 800, and 1000 μM (R^2 = 0.998). The FRAP values were calculated as μM of ascorbic acid equivalents based on the standard curve. The results presented are the mean of three independent experiments.

HIEC-6 cells = assay: Cell viability CCK-8 assay in HIEC-6; type: cell-based, Human; settings: 24 h incubation
Method: Human intestinal epithelial cells (HIEC-6), originally obtained from the American Type Culture Collection (ATCC), were cultured in Opti-MEM™ I Reduced Serum Medium (Cat. No. 31985) supplemented with 20 mM HEPES, 10 mM L-glutamine, 10 ng/mL epidermal growth factor, and 4% fetal bovine serum (FBS) (New York, NY, USA). Cells were maintained in a humidified 5% CO2 incubator at 37 °C. Cell viability was assessed using the CCK-8 assay, a colorimetric method based on the reduction of water-soluble tetrazolium salts (WST-8) to a water-soluble formazan dye, with the resulting color intensity proportional to the number of viable cells. Briefly, cells were harvested at approximately 80% confluence, detached using trypsin-EDTA, and centrifuged at 1000 rpm for 5 min. The cell pellet was resuspended in fresh medium, and the density was adjusted to 1 × 10^6 cells/mL. A volume of 100 µL (1 × 10^5 cells/well) was seeded into a 96-well plate, with one well containing the medium only as background control. […] Subsequently, 10 µL of CCK-8 reagent was added to each well, and the plate was incubated for 4 h. Absorbance was measured at 450 nm using a microplate reader, results are expressed as the mean ± standard deviation (SD).

[2] = Oral bioavailability / pharmacokinetics in rats; type: in vivo, Sprague Dawley rats; settings: for Cmax / AUC(0-inf) / AUC(0-t) / CL/F / half-life / MRT inf / Tmax: male, Sprague Dawley; for Cmax / AUC(0-inf) / AUC(0-t) / CL/F / half-life / MRT inf / Tmax / Vz: rat serum; for Cmax: 100 mg/kg (table: 100 mg dose); for AUC(0-inf) / AUC(0-t) / CL/F / half-life / MRT inf / Tmax / Vz / Distribution volume at the terminal phase (Vz) relative to GA: 100 mg/kg; for MRT inf: n = 6, read-out: MRT0–∞; for Tmax / Distribution volume at the terminal phase (Vz) relative to GA: rat; for Tmax: serum, po
Method: Male Sprague Dawley rats, aged 7–9 weeks and weighing 220 ± 20 g on average, were used for bioavailability studies. The animals were housed in the Laboratory Animal Research Unit at the University of Petra Pharmaceutical Center under controlled conditions: a temperature of 23 ± 2 °C, humidity of 55–65%, and a 12 h light/dark cycle. Prior to the experiments, the rats underwent a 10-day acclimatization period with free access to standard food and water. All procedures complied with the University of Petra’s animal use guidelines, which adhere to the standards of the Federation of European Laboratory Animal Sciences Association (FELASA). The rats were divided into three groups (n = 6 per group) and administered suspensions of GA, 3,4,5-TMBS, or 3,4,5-THBS prepared in 5% carboxymethylcellulose. Each compound was administered orally at a dose of 100 mg/kg, based on previous studies. Blood samples were collected from the retro-orbital plexus at 0.5, 1, 2, 3, 4, 6, 10, and 24 h post-administration. The samples were centrifuged at 5000 rpm for 10 min, and the serum was mixed with acetonitrile in a 1:3 ratio. After a second centrifugation at 5000 rpm for 15 min, the supernatant was collected for high-performance liquid chromatography (HPLC) analysis. HPLC analysis was conducted using a Shimadzu Class VP series system equipped with an LC-10AT VP pump, an SIL-10AD VP autosampler, and an SCL-10AVP system (Shimadzu, Kyoto, Japan). A C18 column (25 cm × 4.6 mm, 5 μm) was used, with a photodiode array detector set to a wavelength range of 200–400 nm. The mobile phase for TMBS and THBS consisted of a 50:50 (v/v) mixture of deionized water and acetonitrile containing 0.1% trifluoroacetic acid, flowing at 1 mL/min. For GA, the mobile phase was a 70:30 mixture of methanol and a water/sulfuric acid solution (100:2), also at a flow rate of 1 mL/min. The retention times for THBS and TMBS were 2.39 and 3.47 min, respectively, while GA eluted at 2.4 min, all detected at 254 nm. Results were analyzed using Lab Solution Software LC (version 5.3) and represent the average of three measurements.

[3] = DPPH radical scavenging assay; settings: for DPPH radical scavenging activity (in words): across tested concentrations 1 to 1000 μM
Method: The antioxidant properties of the compounds under study were examined using the 2,2-Diphenyl-1-picrylhydrazyl (DPPH) assay, following a well-established protocol. A DPPH solution was prepared at a concentration of 0.1 mM in methanol. […] To ensure proper reaction, the mixtures were kept in the dark and incubated at room temperature for 30 min. After incubation, the absorbance of each sample was measured at 517 nm using a UV-VIS spectrophotometer. Gallic acid was used as the reference standard, and methanol served as the blank control.
The ability of the compounds to scavenge free radicals was determined by observing the reduction of DPPH at 517 nm, with lower absorbance values indicating higher antioxidant activity. The half-maximal inhibitory concentration (IC50), defined as the concentration of the compound needed to neutralize 50% of the DPPH radicals, was calculated from the dose–response curve. All experiments were performed in triplicate, and the results are reported as the mean of three independent trials. This method is widely recognized for its reliability and reproducibility in evaluating the antioxidant potential of chemical compounds.

Cmax ([2]; n = 6) [ng/mL]	AUC(0-inf) ([2]; n = 6) [ng·h/mL]	AUC(0-t) ([2]; n = 6) [ng·h/mL]	CL/F ([2]; n = 6) [mL/min/kg]	half-life ([2]; n = 6) [h]	MRT inf [2] [h]	Tmax [2] [h]	Tmax ([2]; n = 6) [h]	Vz ([2]; n = 6)	EC50 [3] [µM]	SMILES	FRAP value (antioxidant capacity) [1]	IC50 (HIEC-6 cells) [µM]	IC50 (HIEC-6 cells; Homo sapiens, HIEC-6, 24 h) [µM]	Distribution volume at the terminal phase (Vz) relative to GA [2]	DPPH radical scavenging activity ([3]; at 1000 µM)	ROS scavenging activity ([3]; at 1000 µM (abstract)) [%]	DPPH radical scavenging activity (in words) [3]	DPPH radical scavenging activity (in words) ([3]; listed as TMBS)
9560 ± 1900	24200 ± 7370	24200 ± 270	73.2	2.1 ± 1.3	2.69 ± 0.36	2	2 ± 0.1	7.39 ± 2.16 (mg)/(μg/mL)	~27	NS(=O)(=O)c1cc(O)c(O)c(O)c1 [3,4,5-THBS, 3,4,5-trihydroxybenzenesulfonamide]	lower antioxidant activity compared to GA	35.5 ± 1.52	35	approximately ten-fold lower than that of GA	exceeding 90%	93	–	–
25800 ± 6030	386000 ± 43800	173000 ± 49300	6.17	7.17 ± 1.62	11.9 ± 0.61	2.87	2.88 ± 1.31	3.20 ± 0.55 (mg)/(μg/mL)	–	COc1cc(S(N)(=O)=O)cc(OC)c1OC [3,4,5-TMBS, 3,4,5-trimethoxybenzenesulfonamide]	lower antioxidant activity compared to GA	33.4 ± 0.7	33	approximately ten-fold lower than that of GA	–	–	negligible effects	minimal scavenging activity
